Results on 4 molecules are retold here after patent publication US10624910B2, “Thrombin-like enzyme for reducing a side effect of an anticancer drug” (priority 2007, dated 2020).

Marks after values point to notes of the source that are not given here. Some results are limits rather than exact numbers.

Holding throughout (assay type): in vivo
The subject of data set [1] is male C57BL/6 mice. As to the kind of experiment: Reducing effect of batroxobin on lethal toxicity caused by adriamycin. Particulars: ADM 3 mg/kg i.p. (+ batroxobin 30 BU/kg i.p.) once every other day, 18 times; 41th day after first dose. The text has this: (§1) The thrombin-like enzyme, batroxobin (hereinafter referred to as DF-521) was used, which is manufactured by Beijing Tobishi Pharmaceutical Co., Ltd. (Beijing, China) with a trade name of Dong Ling Di Fu.
The anticancer drug, adriamycin (hereinafter referred to as ADM) was used, which is manufactured by Hualian Pharmaceutical Factory of Shanghai Pharmaceutical (Group) Co., Ltd.
The laboratory animals, male C57BL/6 mice (weight: 19-22 g) were divided into three groups: control group, adriamycin group (ADM group), and adriamycin+batroxobin group (ADM+DF-521 group), with 10 mice in each group. The control group was administered with physiological saline.
The adriamycin group was given an intraperitoneal dose (3 mg/kg) of adriamycin once every other day. The adriamycin+batroxobin group was given a simultaneous dosage of 3 mg/kg of adriamycin and 30 BU/kg of batroxobin intraperitoneally, once every other day. The drug administration was performed in total of 18 times. The experiment was terminated on the 41th day after the first dose administered. The number of deaths was totaled, and the survival rate was calculated from mortality rate.

In the next data set the test system is C57BL/6 Mice. Nature of the data set: Reducing effect of batroxobin on bone marrow suppression caused by adriamycin. Particulars: ADM 3 mg/kg i.p. (+ batroxobin 30 BU/kg i.p.) once every other day; after 9th administration.
From the text: as §1
The anticancer drug, adriamycin (hereinafter referred to as ADM) was used, which is manufactured by Hualian Pharmaceutical Factory of Shanghai Pharmaceutical Group Co., Ltd.
The laboratory animals, C57BL/6 Mice (weight: 19-22 g) were divided into three groups: control group, adriamycin group (ADM group), and adriamycin+batroxobin (ADM+DF-521 group), with 5-10 mice (n=5 or 10) in one group. The control group was given physiological saline once every other day. The adriamycin group was given an intraperitoneal dose of 3 mg/kg of adriamycin once every other day. The adriamycin+batroxobin group was given an intraperitoneal doses of 3 mg/kg of adriamycin and 30 BU/kg of batroxobin simultaneously, once every other day. After the 9th administration, the experiment was terminated, and the blood was collected from the femoral artery under ether anesthesia using the EDTA anticoagulant. Then, the WBC, RBC counts and Hb value were measured.
Furthermore, the bone marrow nuclear cell (BMNC) count per femur of a mouse was measured with the following procedure. The bone marrow was sampled from 2 femora of a mouse, bone marrow was flushed with the 2 ml physiological saline, and made the bone marrow cell suspension. Twenty of marrow cell suspension was put into 380 μl of 3% acetic acid solution. After the red blood cells were destroyed, the hemocytometer was used for counting the BMNC count under the microscope. Then the BMNC count per femur was calculated.
The above-mentioned BMNC, RBC, WBC counts and Hb value were used as an evaluation index for bone marrow suppression caused by adriamycin.

Data set [2] relates to C57BL/6 male mice inoculated with B16-BL6 murine malignant melanoma cells. As to the kind of experiment: Reducing effect of batroxobin on cardiotoxicity caused by adriamycin (H&E histopathology of left ventricular myocardial tissue). As to conditions: batroxobin 20 BU/kg i.p. once a day and/or adriamycin 3 mg/kg i.p. once interval of 2 days; after 20 days.
From the text: as §1
The anticancer drug, adriamycin (hereinafter referred to as ADM) was used, which is manufactured by Shenzhen Main Luck Pharmaceuticals Inc.
The laboratory animals, C57BL/6 male mice (weight: 16-18 g) were divided into 4 groups: 10 mice in the control group, 7 mice in the batroxobin group, 7 mice in the adriamycin group, and 7 mice in the adriamycin+batroxobin group. Mice from each group were inoculated with a dorsal right lateral subcutaneous injection of 3×10^6 B16-BL6 murine malignant melanoma cells in 0.3 ml of tumor cell suspension. After one day of tumor cell inoculation, the control group was given an intraperitoneal injuction of physiological saline once a day; the batroxobin group was given an intraperitoneal injection of batroxobin (20 BU/kg) once a day; the adriamycin group was given an intraperitoneal injection of adriamycin (3 mg/kg) once interval of 2 days; the adriamycin+batroxobin group was given an intraperitoneal injection of adriamycin (3 mg/kg) once interval of 2 days and an intraperitoneal injection of 20 BU/kg batroxobin once a day after administration of adriamycin. […]

The test system of data set [3] is male C57BL/6 mice. Nature of the data set: Reducing effect of batroxobin on bone marrow suppression caused by cyclophosphamide. As to conditions: CPA 100 mg/kg i.p. (+ batroxobin 30 BU/kg i.p.) once every other day; after fourth administration (7 days).
From the text: as §1
The anticancer chug, cyclophosphamide (hereinafter referred to as CPA) was used, which is manufactured by Shanxi Powerdone Pharmaceutical Co., Ltd.
The laboratory animals, male C57BL/6 mice (weight: […] were divided into three groups: control group, cyclophosphamide group (CPA group), and cyclophosphamide+batroxobin group (CPA+DF-521 group), with five mice in one group. The control group was given physiological saline once every other day. The cyclophosphamide group was given an intraperitoneal dose of 100 mg/kg of cyclophosphamide once every other day. The cyclophosphamide+batroxobin group was given an intraperitoneal dose of 100 mg/kg of cyclophosphamide and 30 BU/kg of batroxobin simultaneously, once every other day. After the fourth administration (7 days after the first administration), blood was collected from the femoral artery under ether anesthesia using the EDTA anticoagulant, and the white blood cell count (WBC), red blood cell count (RBC), hemoglobin value (Hb), and platelet count (Plt) was measured.
The bone marrow nuclear cell count (BMNC) per femur of a mouse was measured by the following procedure. Bone marrow was sampled from 2 femora of a mouse, the marrow was flushed with 2 ml of physiological saline, and made the bone marrow cell suspension. Twenty μl of bone marrow cell suspension was put into […] of 3% acetic acid solution. After the red blood cells were destroyed, the hemocytometer was used for counting the BMNC count under the microscope. Then the BMNC count per femur was calculated.
The above-mentioned BMNC, WBC, RBC, Plt counts and Hb value are used as an evaluation index for bone marrow suppression caused by cyclophosphamide.

For data set [4], the system named is male C57BL/6 mice. Nature of the data set: Reducing effect of batroxobin on bone marrow suppression caused by cisplatin. Particulars: DDP 0.8 mg/kg i.p. (+ batroxobin 30 BU/kg i.p.) once every other day; after 17th administration (33rd day).
From the text: as §1
The anticancer drug, cisplatin (hereinafter referred to as DDP) was used, which is manufactured by Yunnan Gejiu Biochemical Pharmaceutical Co., Ltd.
The laboratory animals, male C57BL/6 Mice (weight: 20-22 g) were divided into 3 groups: control group, cisplatin group (DDP group), and cisplatin+batroxobin group (DDP+DF-521 group); with 10 mice in one group. The control group was given physiological saline once every other day. The cisplatin group was given an intraperitoneal dose of 0.8 mg/kg of cisplatin once every other day. The cisplatin+batroxobin group was given an intraperitoneal dose of 0.8 mg/kg of cisplatin and 30 BU/kg of batroxobin simultaneously, once every other day. After the 17th administration (33rd day after the first administration), the experiment was terminated, blood was collected from the femoral artery under ether anesthesia using the anticoagulant EDTA, and the WBC, RBC, Plt counts and Hb value, were measured.
Furthermore the bone marrow nuclear cell (BMNC) count per femur of a mouse was measured by the following procedure. Bone marrow was sampled from 2 femora of a mouse, the bone marrow was flushed with the 2 ml physiological saline, and made bone marrow cell suspension. Twenty μl of marrow cell suspension was put into 380 μl of 3% acetic acid solution. After the red blood cells were destroyed, the hemocytometer was used for counting the BMNC count under the microscope. Then, the BMNC count per femur was calculated.
The above-mentioned BMNC, WBC, RBC, Plt counts and Hb value were used as an evaluation index for bone marrow suppression caused by cisplatin.

The subject of a further data set is Mouse (ddy). Nature of the data set: Acute toxicity of batroxobin (i.v.), mouse. How it is done:
(§2) The thrombin-like enzyme, batroxobin is used in the present agent. The acute toxicity (LD50 (BU/kg)) of batroxobin on mice, rats, rabbits and dogs is as follows in Table 1. The acute toxicity test was assessed by the intravenous administration of batroxobin.

For a further data set, the system named is Rat (Wistar). Nature of the data set: Acute toxicity of batroxobin (i.v.), rat. How it is done:
as §2

The next data set concerns Rabbit (NW). As to the kind of experiment: Acute toxicity of batroxobin (i.v.), rabbit. On the procedure:
as §2

The next data set has as its system Dog (mongrel). As to the kind of experiment: Acute toxicity of batroxobin (i.v.), dog. On the procedure:
as §2

As to `COc1cccc2c1C(=O)c1c(O)c3c(c(O)c1C2=O)C[C@@](O)(C(=O)CO)C[C@@H]3O[C@H]1C[C@H](N)[C@H](O)[C@H](C)O1` [ADM, adriamycin], in the data set with male C57BL/6 mice [1], the “Survival No/Total No” value was 4/10* and the survival rate % entry was “(40%)”. In the data set with C57BL/6 Mice, the BMNC is reported as 6.9 ± 1.6 ×10^6/bone, the Hb is on record as 94.9 ± 30.5 g/L, the RBC is on record as 6.6 ± 1.5 ×10^12/L and the WBC is listed as 3.4 ± 0.7 ×10^9/L. The “Pathological findings in left ventricular myocardial tissue (H&E) compared to control group” value in [2] is “abnormalities were observed”.

Consider `O=P1(N(CCCl)CCCl)NCCCO1` (stereo not shown) [CPA, cyclophosphamide], for which, in the data set on male C57BL/6 mice [3], the BMNC is on record as 2.4 ± 0.4 ×10^6/bone, the Hb is on record as 98.8 ± 9.2 g/L, the Plt is 1081.6 ± 47.4 ×10^9/L and the RBC is reported as 6.2 ± 0.5 ×10^12/L. For the same molecule, the WBC in the data set on male C57BL/6 mice [3] is reported as 0.8 ± 0.3 ×10^9/L.

With `N.N.[Cl][Pt][Cl]` [DDP, cisplatin], in the data set on male C57BL/6 mice [4], the BMNC is reported as 11.3 ± 2.6 ×10^6/bone, the Hb came to 121.6 ± 10.7 g/L, the Plt is reported as 1059.2 ± 241.5 ×10^9/L and the RBC is 7.4 ± 0.8 ×10^12/L. Besides, the WBC in the data set with male C57BL/6 mice [4] is listed as 6.1 ± 2.2 ×10^9/L.

Turning to batroxobin, the “LD50 Value” is recorded as 192~210 BU/kg with Mouse (ddy), 105~110 BU/kg in the data set on Rat (Wistar), over 300 BU/kg with Rabbit (NW) and 190~208 BU/kg with Dog (mongrel). For the same molecule, the “Pathological findings in left ventricular myocardial tissue (H&E) compared to control group” value in [2] is “abnormalities were not observed”.
